Read-outs that look alike come from different tables or passages of the source.
Tested on: PBMC (T cell proliferation)
Assay: T cell proliferation assay, PHA-stimulated human PBMC (BrdU ELISA)
Format: cell-based
Settings: 48 hours, BrdU
Method: Cell proliferation was analysed using the BrdU based cell proliferation ELISA from Roche (Mannheim, Germany) according to the manufacturer's instructions.
T Cell Proliferation Assay
Peripheral blood mononuclear cells (PBMC) from healthy human donors were isolated by centrifugation over Ficoll-Hypaque (Sigma-Aldrich, Germany) according to manufacturer's instructions. Purified PBMC were washed twice with PBS and resuspended in RPMI1640 culture medium supplemented with 10% dialyzed heat inactivated fetal calf serum, 1.5 mM L-glutamine, 100 U penicillin/ml, and […] (all from PAN Biotech, Aidenbach, Germany). For stimulation, PBMC were seeded at 1×10^5 cells/well, activated with 2 μg/ml phytohaemagglutinin (PHA, Sigma) and incubated with the test compound. After 48 hours proliferation was measured using the BrdU based cell proliferation ELISA from Roche (Mannheim, Germany) according to the manual.

[1] = human PBMC, 2 μg/ml PHA, read-out: D: IC50 (Tcell proliferation)
[2] = PHA-stimulated human PBMC, column D, activity classes 1-4, read-out: IC50 (Tcell proliferation)

| SMILES | IC50 [1] [nM] | IC50 [2] [nM] |
| --- | --- | --- |
| CCOC(=O)c1c(-c2ccccc2F)noc1-c1cnn(-c2cccc(Cl)c2)c1C(F)(F)F [Example B-47, ethyl 5-(1-(3-chlorophenyl)-5-(trifluoromethyl)-1H-pyrazol-4-yl)-3-(2-fluorophenyl)isoxazole-4-carboxylate] | 10 to 100 | – |
| NS(=O)(=O)c1cccc(-n2ncc(-c3onc(-c4c(F)cccc4Cl)c3-c3nnco3)c2C(F)(F)F)c1 [IB-17, 3-(4-(3-(2-chloro-6-fluorophenyl)-4-(1,3,4-oxadiazol-2-yl)isoxazol-5-yl)-5-(trifluoromethyl)-1H-pyrazol-1-yl)benzenesulfonamide] | – | 1000 to 10000 |
| Cc1nnc(-c2c(-c3c(F)cccc3Cl)noc2-c2cnn(-c3ccncc3)c2C(F)(F)F)o1 [IB-19, 2-(3-(2-chloro-6-fluorophenyl)-5-(1-(pyridin-4-yl)-5-(trifluoromethyl)-1H-pyrazol-4-yl)isoxazol-4-yl)-5-methyl-1,3,4-oxadiazole] | – | 100 to 1000 |
| COC(=O)c1c(-c2c(F)cccc2Cl)noc1-c1cnn(-c2cccc(Cl)c2)c1C(F)(F)F [Example 11, methyl 3-(2-chloro-6-fluorophenyl)-5-(1-(3-chlorophenyl)-5-(trifluoromethyl)-1H-pyrazol-4-yl)isoxazole-4-carboxylate] | < 10 | – |
| COc1csc(-c2c(-c3c(F)cccc3Cl)noc2-c2cnn(-c3cccc(F)c3)c2C(F)(F)F)n1 [Example I-10, 3-(2-chloro-6-fluorophenyl)-5-(1-(3-fluorophenyl)-5-(trifluoromethyl)-1H-pyrazol-4-yl)-4-(4-methoxythiazol-2-yl)isoxazole] | – | 10 to 100 |
| COC(=O)c1c(-c2c(F)cccc2Cl)noc1-c1cnn(-c2ccc(Cl)cc2Cl)c1C(F)(F)F [Example 7, methyl 3-(2-chloro-6-fluorophenyl)-5-(1-(2,4-dichlorophenyl)-5-(trifluoromethyl)-1H-pyrazol-4-yl)isoxazole-4-carboxylate] | 1000 to 10000 | – |
| COC(=O)c1c(-c2c(F)cccc2Cl)noc1-c1cnn(-c2cccnc2)c1C(F)(F)F [Example B-67, methyl 3-(2-chloro-6-fluorophenyl)-5-(1-(pyridin-3-yl)-5-(trifluoromethyl)-1H-pyrazol-4-yl)isoxazole-4-carboxylate] | 10 to 100 | – |
| Fc1ccccc1-n1ncc(-c2onc(-c3c(F)cccc3Cl)c2-c2ccoc2)c1C(F)(F)F [IB-9, 3-(2-chloro-6-fluorophenyl)-5-(1-(2-fluorophenyl)-5-(trifluoromethyl)-1H-pyrazol-4-yl)-4-(furan-3-yl)isoxazole] | – | 100 to 1000 |
| CON(C)C(=O)c1c(-c2c(F)cccc2Cl)noc1-c1cnn(-c2ccccc2F)c1C(F)(F)F [Example B-53, 3-(2-chloro-6-fluorophenyl)-5-(1-(2-fluorophenyl)-5-(trifluoromethyl)-1H-pyrazol-4-yl)-N-methoxy-N-methylisoxazole-4-carboxamide] | 100 to 1000 | – |
| CON(C)C(=O)c1c(-c2ccccc2Cl)noc1-c1cnn(-c2cccc(Cl)c2)c1C(F)(F)F [Example B-64, 3-(2-chlorophenyl)-5-(1-(3-chlorophenyl)-5-(trifluoromethyl)-1H-pyrazol-4-yl)-N-methoxy-N-methylisoxazole-4-carboxamide] | 100 to 1000 | – |
| CCOC(=O)c1c(-c2c(F)cccc2Cl)noc1-c1cnn(CC2CCCO2)c1C(F)(F)F (stereo not drawn) [Example B-96, ethyl 3-(2-chloro-6-fluorophenyl)-5-(1-((tetrahydrofuran-2-yl)methyl)-5-(trifluoromethyl)-1H-pyrazol-4-yl)isoxazole-4-carboxylate] | 10 to 100 | – |
| CON(C)C(=O)c1c(-c2ccccc2F)noc1-c1cnn(-c2cccc(F)c2)c1C(F)(F)F [Example 94, 3-(2-fluorophenyl)-5-(1-(3-fluorophenyl)-5-(trifluoromethyl)-1H-pyrazol-4-yl)-N-methoxy-N-methylisoxazole-4-carboxamide] | 1000 to 10000 | – |
| COC(=O)c1c(-c2ccc(Cl)cc2Cl)noc1-c1cnn(-c2cccc(F)c2)c1C(F)(F)F [Example 111, methyl 3-(2,4-dichlorophenyl)-5-(1-(3-fluorophenyl)-5-(trifluoromethyl)-1H-pyrazol-4-y)isoxazole-4-carboxylate] | 100 to 1000 | – |
| O=C(c1c(-c2c(F)cccc2Cl)noc1-c1cnn(-c2ccccc2F)c1C(F)(F)F)N1CCOCC1 [Example 16, (3-(2-chloro-6-fluorophenyl)-5-(1-(2-fluorophenyl)-5-(trifluoromethyl)-1H-pyrazol-4-yl)isoxazol-4-yl)(morpholino)methanone] | 1000 to 10000 | – |
| Fc1cccc(Cl)c1-c1noc(-c2cnn(-c3cccc(Cl)c3)c2C(F)(F)F)c1-c1nnn[nH]1 [Example I-3, 3-(2-chloro-6-fluorophenyl)-5-(1-(3-chlorophenyl)-5-(trifluoromethyl)-1H-pyrazol-4-yl)-4-(1H-tetrazol-5-yl)isoxazole] | – | 1000 to 10000 |
| O=C(c1c(-c2c(F)cccc2Cl)noc1-c1cnn(-c2ccccc2F)c1C(F)(F)F)N1CCCO1 [Example B-52, (3-(2-chloro-6-fluorophenyl)-5-(1-(2-fluorophenyl)-5-(trifluoromethyl)-1H-pyrazol-4-yl)isoxazol-4-yl)(isoxazolidin-2-yl)methanone] | 1000 to 10000 | – |
| O=C(Nc1c(-c2c(F)cccc2Cl)noc1-c1cnn(-c2cccc(F)c2)c1C(F)(F)F)C(F)(F)F [Example B-22, N-(3-(2-chloro-6-fluorophenyl)-5-[1-(3-fluorophenyl)-5-(trifluoromethyl)-1H-pyrazol-4-yl]-1,2-oxazol-4-yl)-2,2,2-trifluoroacetamide] | 1000 to 10000 | – |
| Fc1cccc(Cl)c1-c1noc(-c2cnn(-c3ccccc3)c2C(F)(F)F)c1Br [Example 145, 4-bromo-3-(2-chloro-6-fluorophenyl)-5-(1-phenyl-5-(trifluoromethyl)-1H-pyrazol-4-yl)isoxazole] | 10 to 100 | – |
| COC(=O)c1c(-c2c(F)cccc2Cl)noc1-c1cnn(-c2cc(F)cc(F)c2)c1C(F)(F)F [Example 50, methyl 3-(2-chloro-6-fluorophenyl)-5-(1-(3,5-difluorophenyl)-5-(trifluoromethyl)-1H-pyrazol-4-yl)isoxazole-4-carboxylate] | < 10 | – |
| N#Cc1c(-c2c(F)cccc2Cl)noc1-c1cnn(-c2cccc(F)c2)c1C(F)(F)F [Example 120, 3-(2-chloro-6-fluorophenyl)-5-(1-(3-fluorophenyl)-5-(trifluoromethyl)-1H-pyrazol-4-yl)isoxazole-4-carbonitrile] | 100 to 1000 | – |
| CCOC(=O)c1c(-c2c(F)cccc2Cl)noc1-c1cnn(-c2ccc(NC(C)=O)cc2)c1C(F)(F)F [Example B-99, ethyl 5-(1-(4-acetamidophenyl)-5-(trifluoromethyl-1H-pyrazol-4-yl)-3-(2-chloro-6-fluorophenyl)isoxazole-4-carboxylate] | 1000 to 10000 | – |
| CCOC(=O)c1c(-c2c(F)cccc2Cl)noc1-c1cnn(-c2ccc([N+](=O)[O-])cc2)c1C(F)(F)F [Example B-94, ethyl 3-(2-chloro-6-fluorophenyl)-5-(1-(4-nitrophenyl)-5-(trifluoromethyl)-1H-pyrazol-4-yl)isoxazole-4-carboxylate] | 1000 to 10000 | – |
| CCOc1cc(-n2ncc(-c3onc(-c4c(F)cccc4Cl)c3C(=O)OC)c2C(F)(F)F)ncn1 [Example 116, methyl 3-(2-chloro-6-fluorophenyl)-5-(1-(6-ethoxypyrimidin-4-yl)-5-(trifluoromethyl)-1H-pyrazol-4-yl)isoxazole-4-carboxylate] | 1000 to 10000 | – |
| CON(C)C(=O)c1c(-c2c(F)cccc2Cl)noc1-c1cnn(-c2cccc(Cl)c2)c1C(F)(F)F [Example 63, 3-(2-chloro-6-fluorophenyl)-5-(1-(3-chlorophenyl)-5-(trifluoromethyl)-1H-pyrazol-4-yl)-N-methoxy-N-methylisoxazole-4-carboxamide] | 100 to 1000 | – |
| Cc1nnc(-c2c(-c3c(F)cccc3Cl)noc2-c2cnn(-c3ccncc3)c2C(F)(F)F)s1 [IB-22, 3-(2-chloro-6-fluorophenyl)-4-(5-methyl-1,3,4-thiadiazol-2-yl)-5-(1-(pyridin-4-yl)-S-(trifluoromethyl)-1H-pyrazol-4-yl)isoxazole] | – | 100 to 1000 |
| CC(C)OC(=O)c1c(-c2c(F)cccc2Cl)noc1-c1cnn(-c2cccc(S(N)(=O)=O)c2)c1C(F)(F)F [Example B-73, isopropyl 3-(2-chloro-6-fluorophenyl)-5-(1-(3-sulfamoylphenyl)-5-(trifluoromethyl)-1H-pyrazol-4-yl)isoxazole-4-carboxylate] | 1000 to 10000 | – |
| CSC(=O)c1c(-c2c(F)cccc2Cl)noc1-c1cnn(-c2cccc(Cl)c2)c1C(F)(F)F [Example 126, S-methyl 3-(2-chloro-6-fluorophenyl)-5-(1-(3-chlorophenyl)-5-(trifluoromethyl)-1H-pyrazol-4-yl)isoxazole-4-carbothioate] | < 10 | – |
| Nc1c(-c2c(F)cccc2Cl)noc1-c1cnn(-c2cccc(Cl)c2)c1C(F)(F)F [Example B-36, 3-(2-chloro-6-fluorophenyl)-5-(1-(3-chlorophenyl)-5-(trifluoromethyl)-1H-pyrazol-4-yl)isoxazol-4-amine] | 100 to 1000 | – |
| CCOC(=O)c1c(-c2onc(-c3c(F)cccc3Cl)c2C(=O)OC)cnn1-c1cccc(Cl)c1 [Example 10, methyl 3-(2-chloro-6-fluorophenyl)-5-(1-(3-chlorophenyl)-5-(ethoxycarbonyl)-1H-pyrazol-4-yl)isoxazole-4-carboxylate] | 10 to 100 | – |
| COc1ccc(-c2noc(-c3cnn(-c4cccc(F)c4)c3C(F)(F)F)c2C(=O)O)cc1 [Example 108, 5-(1-(3-fluorophenyl)-5-(trifluoromethyl)-1H-pyrazol-4-yl)-3-(4-methoxyphenyl)isoxazole-4-carboxylic acid] | 1000 to 10000 | – |

Reference: patent US8592456B2 (4SC Discovery GmbH, priority 2011, dated 2013)
